“And” between values parts separate entries of the source, which are not always exact repeats. Identical values can stand only once.
Columns and labels:
mPB CD34+ cells [1] = assay: Gene editing rates in CD34+ cells, Example 19 (lower sgRNA and ssODN); assay type: cell-based, human; conditions: for % HDR: NAV1.7, 48 h
Experimental: Primary human mobilized peripheral blood (mPB) CD34^+ hematopoietic stem and progenitor cells (HSPCs) were purchased from Hemacare or AllCells. Cells were thawed, washed and resuspended in complete medium comprised of serum free medium CellGro SCGM (CellGenix) and supplemented with cytokine mix (300 ng/mL SCF, 300 ng/mL Flt3 L, 100 ng/mL TPO, 60 ng/ml IL-3) at a density of 1-3×10^5 cells per mL and incubated at 37° C./5% CO2 incubator for 48 hours prior to electroporation.
(§1) CD34^+ cells were electroporated two days post thaw. The following conditions were used for electroporation: 2.0×E6 cells, 15 μg Cas9 protein (Feldan), 15 μg sgRNA, 1 μM of ssODN in 100 μl of P3 electroporation buffer using program CA-137. Electroporated cells were transferred by equally dividing them into eight wells of a 24-well plate, each well containing various concentrations of DNA-PK inhibitors. Cells were incubated at 37° C. in a 5% CO2 incubator for two days and evaluated for cell viability and gene editing.
Genomic DNA was isolated by incubating cells with 50 ul DNA Quickextract solution (Epicentre) per well of 96 well plate for 30 min at 37° C. Cellular extract was mixed and transferred into a PCR plate and then incubated for 6 min at 65° C. and 2 min at 98° C. PCR reactions were carried out with 1 ul of Genomic DNA containing solution by using AccuPrime™ Pfx DNA Polymerase (Thermofisher, 12344024). PCR conditions were 4 min at 94° C. (1×), followed by 15 s at 94° C., 15 s at 60° C. and 1 min at […]. The PCR products were purified and then Sanger sequenced by GENEWIZ. The following primer pairs spanning the target site were used for PCR (FW, forward; RV, reverse). Primers used by Sanger Sequencing are indicated by an asterisk (*): […]
Each sequence chromatogram was analyzed using TIDE (Tracking of Indels by Decomposition) software (http://tide.nki.nl) (See also Brinkman et al., Nucleic Acids Research, Volume 42, Issue 22, 16 Dec. 2014, Pages e168). Mock-electroporated samples were used as the reference sequence, and parameters were set to an indel size of 30 nt, and the decomposition window was set to cover the largest possible window with high-quality traces. Total indel (insertion and deletions) rates were obtained directly from TIDE plots. HDR rates were the percentage of events with an insertion of 10 Nucleotides. NHEJ Rates were calculated as Total Indel rate−HDR rate. GraphPad Prism 7 software was used to make Graphs and to calculate the all Statistical information.
(§2) mPB CD34^+ cells were electroporated with RNP (spCAS9 protein+NAV1.7 sgRNA) and NAV1.7 Non-PAM ssODN. Cells were then incubated with various concentrations of Compounds 661, 663 and 666. Experiments were done as described in the methods above, except lower concentrations of sgRNA (5 μg) and ssODN (0.2 μM) were used. Gene editing rates were determined by using TIDE assay 48 h after electroporation. Gene editing rates were expressed in percentages and classified as HDR and NHEJ.

CD34+ cells = assay: HDR gene editing rates in CD34+ cells, spCAS9 mRNA, AAVS1 (Example 20); assay type: cell-based, human; conditions: AAVS1 sgRNA, AAVS1 Non-PAM ssODN, 72 hs, FIGS. 8-10
Experimental: To investigate the effect of DNA-PK inhibitors on HDR gene editing rates, CD34^+ cells were electroporated with spCAS9 mRNA, AAVS1 sgRNA and AAVS1 Non-PAM ssODN and then incubated with different concentrations of Compounds 666, 661, 663 or left untreated (Control). Gene editing rates were determined by using TIDE assay 72 hs after electroporation. Gene editing rates were expressed in percentages and classified as HDR and NHEJ. Cell survival rates are shown in percentages where control cells were set as 100%.

mPB CD34+ cells [2] = assay: CD34+ cell viability (Cell Titer Glo), Example 19; assay type: cell-based, human; conditions: untreated control = 100
Experimental: as §1
CD34^+ HSPCs cell survival was measured using Cell Titer Glo (CTG) reagent (Promega). 100 μl of cell suspension was mixed with 100 μl complete CTG reagent. The chemiluminescent signal was measure using a luminometer and % of viable cells was calculated as compared to control cells (cells not treated with the DNA-PK inhibitors).
as §2

DNA-PK = DNA-PK (Homo sapiens, UniProt P78527); assay: DNA-PK inhibition assay (standard radiometric 33P-ATP kinase assay); assay type: biochemical; conditions: 100 μM ATP, approx. 6 nM DNA-PK
Experimental: Compounds were screened for their ability to inhibit DNA-PK kinase using a standard radiometric assay. Briefly, in this kinase assay the transfer of the terminal ^33P-phosphate in ^33P-ATP to a peptide substrate is interrogated. The assay was carried out in 384-well plates to a final volume of 50 μL per well containing approximately 6 nM DNA-PK, 50 mM HEPES (pH 7.5), 10 mM MgCl2, 25 mM NaCl, 0.01% BSA, 1 mM DTT, 10 μg/mL sheared double-stranded DNA (obtained from Sigma), 0.8 mg/mL DNA-PK peptide (Glu-Pro-Pro-Leu-Ser-Gln-Glu-Ala-Phe-Ala-Asp-Leu-Trp-Lys-Lys-Lys, obtained from American Peptide), and 100 μM ATP.
Accordingly, compounds of the invention were dissolved in DMSO to make 10 mM initial stock solutions. Serial dilutions in DMSO were then made to obtain the final solutions for the assay. A 0.75 μL aliquot of DMSO or inhibitor in DMSO was added to each well, followed by the addition of ATP substrate solution containing ^33P-ATP (obtained from Perkin Elmer). The reaction was started by the addition of DNA-PK, peptide and ds-DNA. After 45 min, the reaction was quenched with 25 μL of 5% phosphoric acid. The reaction mixture was transferred to MultiScreen HTS 384-well PH plates (obtained from Millipore), allowed to bind for one hour, and washed three times with 1% phosphoric acid. Following the addition of 50 μL of Ultima Gold™ high efficiency scintillant (obtained from Perkin Elmer), the samples were counted in a Packard TopCount NXT Microplate Scintillation and Luminescence Counter (Packard BioScience). The Ki values were calculated using Microsoft Excel Solver macros to fit the data to the kinetic model for competitive tight-binding inhibition.

| Compound | % NHEJ (mPB CD34+ cells [1]; Donor A, 0.37 μM) | % HDR (mPB CD34+ cells [1]; Donor A, 0.37 μM) | % Indels (mPB CD34+ cells [1]; Donor A, 1.11 μM) | % NHEJ (mPB CD34+ cells [1]; Donor A, 1.11 μM) | % WT (mPB CD34+ cells [1]; Donor A, 1.11 μM) | % HDR (mPB CD34+ cells [1]; Donor A, 1.11 μM) | % Indels (mPB CD34+ cells [1]; Donor A, 3.33 μM) | % WT (mPB CD34+ cells [1]; Donor A, 3.33 μM) | % HDR (mPB CD34+ cells [1]; Donor A, 3.33 μM) | % NHEJ (mPB CD34+ cells [1]; Donor A, 10 μM) | % Indels (mPB CD34+ cells [1]; Donor A, 10.00 μM) | % WT (mPB CD34+ cells [1]; Donor A, 10.00 μM) | % HDR (mPB CD34+ cells [1]; Donor A, 10 μM) | % NHEJ (mPB CD34+ cells [1]; Donor D, 0.37 μM) | % HDR (mPB CD34+ cells [1]; Donor D, 0.37 μM) | % Indels (mPB CD34+ cells [1]; Donor D, 1.11 μM) | % NHEJ (mPB CD34+ cells [1]; Donor D, 1.11 μM) | % WT (mPB CD34+ cells [1]; Donor D, 1.11 μM) | % HDR (mPB CD34+ cells [1]; Donor D, 1.11 μM) | % Indels (mPB CD34+ cells [1]; Donor D, 3.33 μM) | other results |
| --- | --- | --- | --- | --- | --- | --- | --- | --- | --- | --- | --- | --- | --- | --- | --- | --- | --- | --- | --- | --- | --- |
| CNC(=O)c1ccnc(N[C@H]2CC[C@@H](Oc3cc(N4CCOCC4)cc4nccnc34)CC2)n1 [Compound 661] | 66.2% | 21.8% | 59.4% | 59.4% | 4.2% | 31.7% | 57.8% | 5.1% | 32.2% | 47% | 47% | 18.9% | 28% | 78.1% | 6.9% | 77.5% | 77.5% | 6% | 10.8% | 76.7% | % WT (mPB CD34+ cells [1]; Donor D, 3.33 μM): 6.4%; % HDR (mPB CD34+ cells [1]; Donor D, 3.33 μM): 11.5%; % NHEJ (mPB CD34+ cells [1]; Donor D, 10 μM): 64.2%; % Indels (mPB CD34+ cells [1]; Donor D, 10.00 μM): 64.2%; % WT (mPB CD34+ cells [1]; Donor D, 10.00 μM): 11.1%; % HDR (mPB CD34+ cells [1]; Donor D, 10 μM): 13.4%; HDR rates (CD34+ cells): improve HDR rates; Viability (mPB CD34+ cells [2]; Donor A, 1.11 μM): 60; Viability (mPB CD34+ cells [2]; Donor A, 3.33 μM): 47; Viability (mPB CD34+ cells [2]; Donor A, 10.00 μM): 6; Viability (mPB CD34+ cells [2]; Donor D, 1.11 μM): 62; Viability (mPB CD34+ cells [2]; Donor D, 3.33 μM): 75; Viability (mPB CD34+ cells [2]; Donor D, 10.00 μM): 11; Ki (DNA-PK): 1 nM |
| CNC(=O)c1ccnc(N[C@H]2CC[C@@H](Oc3cc(N4CCOCC4)cc4nonc34)CC2)n1 [Compound 666, N-methyl-2-((4-((6-morpholinobenzo[c][1,2,5]oxadiazol-4-yl)oxy)cyclohexyl)amino)pyrimidine-4-carboxamide] | 67.3% | 23.2% | 58.8% | 58.8% | 3.5% | 31.5% | 56.5% | 5.8% | 32.4% | 52% | 52% | 9.7% | 33.6% | 79.2% | 5.5% | 77.5% | 77.5% | 6.2% | 11% | 73.8% | % WT (mPB CD34+ cells [1]; Donor D, 3.33 μM): 5.3%; % HDR (mPB CD34+ cells [1]; Donor D, 3.33 μM): 14.3%; % NHEJ (mPB CD34+ cells [1]; Donor D, 10 μM): 69%; % Indels (mPB CD34+ cells [1]; Donor D, 10.00 μM): 69%; % WT (mPB CD34+ cells [1]; Donor D, 10.00 μM): 11.8%; % HDR (mPB CD34+ cells [1]; Donor D, 10 μM): 13.7%; HDR rates (CD34+ cells): improve HDR rates; Viability (mPB CD34+ cells [2]; Donor A, 1.11 μM): 65; Viability (mPB CD34+ cells [2]; Donor A, 3.33 μM): 42; Viability (mPB CD34+ cells [2]; Donor A, 10.00 μM): 36; Viability (mPB CD34+ cells [2]; Donor D, 1.11 μM): 76; Viability (mPB CD34+ cells [2]; Donor D, 3.33 μM): 69; Viability (mPB CD34+ cells [2]; Donor D, 10.00 μM): 34; Ki (DNA-PK): 1 nM and < 100 nM |

Source: patent US12121524B2, “DNA-PK inhibitors” (VERTEX PHARMACEUTICALS INCORPORATED, priority 2018, dated 2024)
